Reference: article doi:10.1101/2023.07.12.548622v2 (biorxiv, 2023)
Blank lines part the entries; values can stand above or below the molecule they belong to.

What was measured:
[1] = target: T1, hACKR3 (atypical chemokine receptor 3; CXCR7) (Homo sapiens, UniProt P25106); test: […]CXCL12 displacement, intact HEK293T cells; type: cell-based
[2] = target: T1, hACKR3 (atypical chemokine receptor 3; CXCR7); test: BRET beta-arrestin2 recruitment, HEK293T; type: cell-based
[3] = target: T1, hACKR3 (atypical chemokine receptor 3; CXCR7); test: [3H]VUF15485 displacement, HEK293T membranes; type: binding; details: for pIC50: 5 nM [3H]VUF15485, 25 °C, 2 h
[4] = target: hACKR3 (atypical chemokine receptor 3; CXCR7) (Homo sapiens, UniProt P25106, V217A); test: homologous [3H]VUF15485 competition binding, HEK293T membranes
[5] = target: hACKR3 (atypical chemokine receptor 3; CXCR7) (Homo sapiens, UniProt P25106, Q301E); test: as above
[6] = target: hACKR3 (atypical chemokine receptor 3; CXCR7) (Homo sapiens, UniProt P25106, D275N); test: as above
[7] = target: T1, hACKR3 (atypical chemokine receptor 3; CXCR7); test: [3H]VUF15485 saturation binding, HEK293T membranes
[8] = target: T1, hACKR3 (atypical chemokine receptor 3; CXCR7); test: homologous [3H]VUF15485 competition binding, HEK293T membranes
[9] = target: hACKR3 (atypical chemokine receptor 3; CXCR7) (Homo sapiens, UniProt P25106, S103D); test: as above
[10] = target: hACKR3 (atypical chemokine receptor 3; CXCR7) (Homo sapiens, UniProt P25106, H298A); test: as above
[11] = target: hACKR3 (atypical chemokine receptor 3; CXCR7) (Homo sapiens, UniProt P25106, Y51A); test: as above
[12] = target: hACKR3 (atypical chemokine receptor 3; CXCR7) (Homo sapiens, UniProt P25106, H121A); test: as above
[13] = target: hACKR3 (atypical chemokine receptor 3; CXCR7) (Homo sapiens, UniProt P25106, E213Q); test: as above
mouse ACKR3 (mACKR3) = mouse ACKR3 (mACKR3) (Mus musculus, UniProt P56485); test: NanoBiT beta-arrestin2 recruitment, HEK293T; type: cell-based
Sequence of mouse ACKR3 (mACKR3) (P56485 whole entry): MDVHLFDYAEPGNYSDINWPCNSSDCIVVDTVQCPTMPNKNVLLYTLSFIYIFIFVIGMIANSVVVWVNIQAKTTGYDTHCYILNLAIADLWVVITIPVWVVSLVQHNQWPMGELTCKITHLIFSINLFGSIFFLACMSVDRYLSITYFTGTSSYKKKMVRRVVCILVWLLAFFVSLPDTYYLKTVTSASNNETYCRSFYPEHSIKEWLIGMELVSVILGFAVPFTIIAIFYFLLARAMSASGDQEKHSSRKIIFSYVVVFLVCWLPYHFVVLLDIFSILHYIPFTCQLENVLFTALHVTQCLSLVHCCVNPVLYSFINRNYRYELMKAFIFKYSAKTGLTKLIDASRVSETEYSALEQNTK

T1 sequence (P25106 whole entry): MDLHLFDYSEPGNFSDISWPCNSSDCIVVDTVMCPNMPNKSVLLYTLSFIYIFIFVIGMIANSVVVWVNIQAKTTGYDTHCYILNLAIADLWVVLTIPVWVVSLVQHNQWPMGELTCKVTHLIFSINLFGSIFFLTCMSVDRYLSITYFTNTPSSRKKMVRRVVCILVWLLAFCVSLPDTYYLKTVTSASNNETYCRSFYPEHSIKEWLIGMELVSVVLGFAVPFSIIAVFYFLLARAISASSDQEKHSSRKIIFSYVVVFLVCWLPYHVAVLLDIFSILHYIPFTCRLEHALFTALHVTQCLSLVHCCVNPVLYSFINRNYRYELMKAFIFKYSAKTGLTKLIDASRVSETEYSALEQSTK
Sequence of hACKR3 (atypical chemokine receptor 3; CXCR7) (Homo sapiens, UniProt P25106, Q301E) (P25106 whole entry Q301E): as the sequence (P25106 whole entry) above, with Q301E counted along it
Sequence of hACKR3 (atypical chemokine receptor 3; CXCR7) (Homo sapiens, UniProt P25106, V217A) (P25106 whole entry V217A): as the sequence (P25106 whole entry) above, with V217A counted along it
Sequence of hACKR3 (atypical chemokine receptor 3; CXCR7) (Homo sapiens, UniProt P25106, D275N) (P25106 whole entry D275N): as the sequence (P25106 whole entry) above, with D275N counted along it
Sequence of hACKR3 (atypical chemokine receptor 3; CXCR7) (Homo sapiens, UniProt P25106, H298A) (P25106 whole entry H298A): as the sequence (P25106 whole entry) above, with H298A counted along it
Sequence of hACKR3 (atypical chemokine receptor 3; CXCR7) (Homo sapiens, UniProt P25106, H121A) (P25106 whole entry H121A): as the sequence (P25106 whole entry) above, with H121A counted along it
Sequence of hACKR3 (atypical chemokine receptor 3; CXCR7) (Homo sapiens, UniProt P25106, S103D) (P25106 whole entry S103D): as the sequence (P25106 whole entry) above, with S103D counted along it
Sequence of hACKR3 (atypical chemokine receptor 3; CXCR7) (Homo sapiens, UniProt P25106, Y51A) (P25106 whole entry Y51A): as the sequence (P25106 whole entry) above, with Y51A counted along it
Sequence of hACKR3 (atypical chemokine receptor 3; CXCR7) (Homo sapiens, UniProt P25106, E213Q) (P25106 whole entry E213Q): as the sequence (P25106 whole entry) above, with E213Q counted along it

IC50 [1]: 20 nM | EC50 [2]: 39.8 nM
Molecule: COc1cc(C(=O)N(CC[C@@H]2CCCN2C)C/C(C)=C/c2ccccc2F)cc(OC)c1OC [VUF13744]

IC50 [3]: 10 µM
Molecule: Oc1ccc(CN2CCC(CNCc3ccccc3)CC2)cc1 [9 in Adlere et al., 2019, VUF16774]

Ki [4]: 38 nM | IC50 [1]: 5.01 nM | EC50 [2]: 25.1 nM | Ki [5]: 17 nM | Ki [6]: 18.6 nM | Kd [7]: 16 ± 2.4 nM | Ki [8]: 24.5 nM | Ki [9]: 95.5 nM | Ki [10]: 44.7 nM | Ki [11]: 49 nM | Ki [12]: 55 nM | Ki [13]: 10.5 nM | EC50 (mouse ACKR3 (mACKR3)): 20 nM
Molecule: COc1cc(C(=O)N(CC[C@H]2CCCN2C)C/C(C)=C/c2ccccc2F)cc(OC)c1OC [VUF15485, (R,E)-N-(3-(2-fluorophenyl)-2-methylallyl)-3,4,5-trimethoxy-N-(2-(1-methylpyrrolidin-2-yl)ethyl)benzamide]

IC50 [1]: 10 nM | EC50 [2]: 31.6 nM
Molecule: COc1cc(C(=O)N(CCC2CCCN2C)C/C(C)=C/c2ccccc2F)cc(OC)c1OC (stereo not shown) [VUF11207]

IC50 [3]: ≥ 100 µM
Molecule: CC1(C)CN2C(CS/C(=N\C3CCCCC3)NC3CCCCC3)=CSC2=N1 [IT1t]

pIC50 [3]: 6.0 ± 0.1
Molecule: VUF16779 [22 in Adlere et al., 2019]

pIC50 [3]: 7.9 ± 0.1
Molecule: VUF11403 [30 in Wijtmans et al., 2012a]

IC50 [3]: ≥ 100 µM
Molecule: c1cc(CN2CCCNCCNCCCNCC2)ccc1CN1CCCNCCNCCCNCC1 [AMD3100]

pIC50 [3]: 7.8 ± 0.1
Molecule: VUF16545 [1 in Uto-Konimi et al., 2013]

pIC50 [3]: 5.8 ± 0.1
Molecule: VUF16771 [28 in Adlere et al., 2019]

pIC50 [3]: 5.9 ± 0.3
Molecule: CC1(C)[C@H]2CC=C(C[N+](C)(C)Cc3ccc(-c4ccccc4I)cc3)[C@@H]1C2.[I-] [39 in Wijtmans et al., 2012b, VUF11418]

pIC50 [3]: 5.9 ± 0.1
Molecule: VUF10990 [10q in Wijtmans et al., 2011]

pIC50 [3]: 5.8 ± 0.2
Molecule: CC1(C)[C@H]2CC=C(C[N+](C)(C)Cc3ccc(-c4ccccc4Br)cc3)[C@@H]1C2.[I-] [38 in Wijtmans et al., 2012b, VUF11222]

pIC50 [3]: 4.7 ± 0.2
Molecule: CCNC(=O)c1cnc(N2CCN(C3CCN(Cc4ccc(Cl)cc4)CC3)C(CC)C2)c(Cl)c1 (stereo not shown) [VUF11211]
